Laboratory results published in ChEMBL document CHEMBL5346957, “Enantioselective Synthesis and Biological Evaluation of Pyrrolidines Bearing Quaternary Stereogenic Centers” (J Med Chem, 2023).
Calls of active or inactive are those of the source. The calls are words filed in the database; no cut-off is given here.

Key:
PC-3 = assay: Antiproliferative activity against human PC-3 cells incubated for 72 hrs measured by MTT assay; type: functional, cell-based; details: PC-3, 72 h
[1] = Cytotoxicity against human BEAS-2B cells incubated for 72 hrs measured by MTT assay; type: toxicity, cell-based
HeLa = assay: Antiproliferative activity against human HeLa cells incubated for 72 hrs measured by MTT assay; type: functional, cell-based
A-375 [2] = assay: Antiproliferative activity against human A-375 cells incubated for 72 hrs measured by MTT assay; type: functional, cell-based; details: A-375, 72 h
HCT-116 = assay: Antiproliferative activity against human HCT-116 cells incubated for 72 hrs measured by MTT assay; type: functional, cell-based; details: HCT-116, 72 h
A549 = assay: Antiproliferative activity against human A549 cells incubated for 72 hrs measured by MTT assay; type: functional, cell-based; details: A549, 72 h
HepG2 = assay: Antiproliferative activity against human HepG2 cells incubated for 72 hrs measured by MTT assay; type: functional, cell-based; details: HepG2, 72 h
MDA-MB-231 = assay: Antiproliferative activity against human MDA-MB-231 cells incubated for 72 hrs measured by MTT assay; type: functional, cell-based; details: MDA-MB-231, 72 h
MIA PaCa-2 = assay: Antiproliferative activity against human MIA PaCa-2 cells incubated for 72 hrs measured by MTT assay; type: functional, cell-based; details: MIA PaCa-2, 72 h
A-375 [3] = assay: Induction of apoptosis in human A-375 cells assessed as early apoptotic cells at 1 uM measured by annexin V/PI based flow cytometric analysis (reference value: 9.78%); type: functional
Aurora kinase C = molecular target: T1, Aurora kinase C (Homo sapiens, UniProt Q9UQB9); assay: Inhibition of Aurora C (unknown origin) incubated for 1 hr by microplate reader analysis
T1 sequence (Q9UQB9 whole entry): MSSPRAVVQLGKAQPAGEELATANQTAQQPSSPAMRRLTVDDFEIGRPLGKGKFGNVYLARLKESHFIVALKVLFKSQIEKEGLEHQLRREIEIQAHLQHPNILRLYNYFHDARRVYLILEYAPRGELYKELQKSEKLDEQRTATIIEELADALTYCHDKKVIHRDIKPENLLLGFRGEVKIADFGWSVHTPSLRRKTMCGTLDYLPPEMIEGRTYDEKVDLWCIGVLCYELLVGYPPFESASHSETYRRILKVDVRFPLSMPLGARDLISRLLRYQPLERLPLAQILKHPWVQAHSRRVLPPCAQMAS

A-375 [4] = assay: Effect on mitotic progression in human A-375 cells assessed as mitotic index at 1 uM measured by flow cytometric analysis (reference value: 3.22%); type: functional
A-375 [5] = assay: Induction of apoptosis in human A-375 cells assessed as early apoptotic cells at 2 uM measured by annexin V/PI based flow cytometric analysis (reference value: 9.78%); type: functional
A-375 [6] = assay: Effect cycle arrest in human A-375 cells assessed as accumulation of cells in G2/M phase at 2 uM measured by flow cytometric analysis (reference value: 26.76%); type: functional
A-375 [7] = assay: Induction of apoptosis in human A-375 cells assessed as apoptotic cells at 0.5 uM measured by annexin V/PI based flow cytometric analysis (reference value: 10.8%); type: functional
A-375 [8] = assay: Effect cycle arrest in human A-375 cells assessed as accumulation of cells in G2/M phase at 1 uM measured by flow cytometric analysis (reference value: 26.76%); type: functional
A-375 [9] = assay: Induction of apoptosis in human A-375 cells assessed as apoptotic cells at 1 uM measured by annexin V/PI based flow cytometric analysis (reference value: 10.8%); type: functional
A-375 [10] = assay: Induction of apoptosis in human A-375 cells assessed as late apoptotic cells at 1 uM measured by annexin V/PI based flow cytometric analysis (reference value: 1.07%); type: functional
[11] = molecular target: T2, Aurora kinase A (Homo sapiens) (UniProt O14965); assay: Inhibition of Aurora A (unknown origin) assessed as downregulation of kinase phosphorylation at 0.5 to 2 uM by Western blot analysis; details: dose 0.5-2 µM
T2 sequence (whole entry): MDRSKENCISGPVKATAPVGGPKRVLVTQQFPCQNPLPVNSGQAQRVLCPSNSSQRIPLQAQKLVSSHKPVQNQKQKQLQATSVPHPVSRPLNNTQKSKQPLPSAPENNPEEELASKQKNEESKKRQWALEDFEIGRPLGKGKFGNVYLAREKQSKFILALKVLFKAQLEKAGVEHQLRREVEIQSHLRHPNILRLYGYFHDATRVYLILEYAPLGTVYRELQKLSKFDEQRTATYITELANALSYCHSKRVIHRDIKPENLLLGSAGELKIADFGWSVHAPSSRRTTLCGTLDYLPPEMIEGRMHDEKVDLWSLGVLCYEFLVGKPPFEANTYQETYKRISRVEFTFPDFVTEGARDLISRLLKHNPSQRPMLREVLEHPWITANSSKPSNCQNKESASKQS

A-375 [12] = assay: Effect on mitotic progression in human A-375 cells assessed as mitotic index at 0.5 uM measured by flow cytometric analysis (reference value: 3.22%); type: functional
A-375 [13] = assay: Effect on mitotic progression in human A-375 cells assessed as mitotic index at 2 uM measured by flow cytometric analysis (reference value: 3.22%); type: functional
A-375 [14] = assay: Effect cycle arrest in human A-375 cells assessed as accumulation of cells in G2/M phase at 0.5 uM measured by flow cytometric analysis (reference value: 26.76%); type: functional
A-375 [15] = assay: Induction of apoptosis in human A-375 cells assessed as late apoptotic cells at 0.5 uM measured by annexin V/PI based flow cytometric analysis (reference value: 1.07%); type: functional
A-375 [16] = assay: Induction of apoptosis in human A-375 cells assessed as early apoptotic cells at 0.5 uM measured by annexin V/PI based flow cytometric analysis (reference value: 9.78%); type: functional
Aurora kinase B = Aurora kinase B (Homo sapiens, UniProt Q96GD4); assay: Inhibition of Aurora B (unknown origin) incubated for 1 hr by microplate reader analysis
Aurora kinase A = molecular target: T3, Aurora kinase A (Homo sapiens, UniProt O14965); assay: Inhibition of Aurora A (unknown origin) incubated for 1 hr by microplate reader analysis
T3 sequence (O14965 whole entry): T2 sequence (whole entry)

A-375 [17] = assay: Induction of apoptosis in human A-375 cells assessed as late apoptotic cells at 2 uM measured by annexin V/PI based flow cytometric analysis (reference value: 1.07%); type: functional
A-375 [18] = assay: Induction of apoptosis in human A-375 cells assessed as apoptotic cells at 2 uM measured by annexin V/PI based flow cytometric analysis (reference value: 10.8%); type: functional

Aurora kinase B, sequence (Q96GD4 whole entry): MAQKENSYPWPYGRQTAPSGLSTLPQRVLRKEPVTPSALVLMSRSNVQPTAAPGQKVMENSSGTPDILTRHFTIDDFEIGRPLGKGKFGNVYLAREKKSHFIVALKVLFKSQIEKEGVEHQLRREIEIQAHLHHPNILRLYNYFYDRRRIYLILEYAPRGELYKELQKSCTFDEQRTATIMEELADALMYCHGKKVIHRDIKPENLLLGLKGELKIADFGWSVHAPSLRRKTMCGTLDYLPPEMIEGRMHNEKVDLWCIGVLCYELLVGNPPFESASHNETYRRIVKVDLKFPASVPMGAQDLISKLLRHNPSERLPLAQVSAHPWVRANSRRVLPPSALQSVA

IC50 (PC-3) [µM] | IC50 (HeLa) [µM] | IC50 (A-375 [2]) [µM] | IC50 (HCT-116) [µM] | IC50 (A549) [µM] | IC50 (HepG2) [µM] | IC50 (MDA-MB-231) [µM] | IC50 (MIA PaCa-2) [µM] | SMILES | IC50 at 72 h [1] [µM] | other results
> 100 | > 100 | > 100 | > 100 | > 100 | > 100 | > 100 | > 100 | CCOc1ccc([C@H]2[C@H](C(=O)OC)N[C@H](c3ccccc3)[C@]2(C)[N+](=O)[O-])cc1 | > 100 | 
32.5 | 82.8 | 26.8 | 74.7 | 49.2 | > 100 | 34.7 | > 100 | CCOc1ccc([C@@H]2[C@@](C)([N+](=O)[O-])[C@@H](c3ccccc3)N[C@@]2(C)C(=O)OC)cc1 | > 100 | 
0.4 | 0.96 | 0.24 | 0.73 | 0.51 | 1.67 | 0.43 | 1.07 | CCOc1ccc([C@H]2[C@](C)([N+](=O)[O-])[C@H](c3ccccc3)N[C@]2(C)C(=O)OC)cc1 | > 100 | Activity (A-375 [3]): 20.4%; IC50 (Aurora kinase C): Not Active; Activity (A-375 [4]): 10.82%; Activity (A-375 [5]): 19.8%; Activity (A-375 [6]): 68.69%; Activity (A-375 [7]): 22.7%; Activity (A-375 [8]): 54.46%; Activity (A-375 [9]): 35%; Activity (A-375 [10]): 14.6%; inhibition [11]: Active; Activity (A-375 [12]): 6.24%; Activity (A-375 [13]): 18.51%; Activity (A-375 [14]): 32.73%; Activity (A-375 [15]): 9.23%; Activity (A-375 [16]): 13.5%; IC50 (Aurora kinase B): Not Active; IC50 (Aurora kinase A): 0.284 µM; Activity (A-375 [17]): 17.8%; Activity (A-375 [18]): 37.6%
14 | 16.5 | 7.42 | 12.4 | 11.5 | 29 | 16.8 | 21.4 | CCOc1ccc([C@@H]2[C@@H](C(=O)OC)N[C@@H](c3ccccc3)[C@@]2(C)[N+](=O)[O-])cc1 | > 100 | 
> 100 | > 100 | > 100 | > 100 | > 100 | > 100 | > 100 | > 100 | CCOc1ccc([C@H]2[C@H]([N+](=O)[O-])[C@H](c3ccccc3)N[C@@H]2C(=O)OC)cc1 | > 100 | 

Second part, the compound before the results:

SMILES | IC50 (PC-3) [µM] | IC50 (HeLa) [µM] | IC50 (A-375 [2]) [µM] | IC50 (HCT-116) [µM] | IC50 (A549) [µM] | IC50 (HepG2) [µM] | IC50 (MDA-MB-231) [µM] | IC50 (MIA PaCa-2) [µM] | IC50 at 72 h [1] [µM] | other results
CCOc1ccc([C@@H]2[C@@H]([N+](=O)[O-])[C@@H](c3ccccc3)N[C@H]2C(=O)OC)cc1 | > 100 | > 100 | > 100 | > 100 | > 100 | > 100 | > 100 | > 100 | > 100 | 
CCOc1ccc([C@H]2[C@H]([N+](=O)[O-])[C@H](c3ccccc3)N[C@]2(C)C(=O)OC)cc1 | > 100 | > 100 | > 100 | > 100 | > 100 | > 100 | > 100 | > 100 | > 100 | 
CCOc1ccc([C@@H]2[C@@H]([N+](=O)[O-])[C@@H](c3ccccc3)N[C@@]2(C)C(=O)OC)cc1 | > 100 | > 100 | > 100 | > 100 | > 100 | > 100 | > 100 | > 100 | > 100 | 
